Source: patent US10105357B2, “Indication of antibiotic drugs for preparation of cancer inhibition pharmaceutical composition” (LAUNX BIOMEDICAL CO., LTD., priority 2014, dated 2018)
Read-outs that look alike come from different tables or passages of the source.

Tests used:
[1] = test system: HI650 (Lung Adenocarcinoma); test: Cell viability analysis, lung cancer HI650; assay type: cell-based, human; conditions: Homo sapiens
[2] = test system: HCT116 (p53+) (Colorectal Carcinoma); test: cells; conditions: Homo sapiens, HCT-116, 72 h, read-out: cell viability (survival rate), HCT116
[3] = test system: MCF7 (Mammary Gland, Adenocarcinoma); test: Cell viability analysis, breast cancer MCF7; assay type: cell-based, human; conditions: Homo sapiens
[4] = test system: HeLa (Cervix Adenocarcinoma); test: Cell viability analysis, cervical cancer HeLa; assay type: cell-based, human; conditions: Homo sapiens, HeLa
[5] = test system: HL-60 (Acute Promyelocytic Leukemia); test: Cell viability analysis, leukemia HL-60; assay type: cell-based, human; conditions: Homo sapiens, drug 10 μM, 72 hours, WST-1, OD450 nm, read-out: cell viability (survival rate), HL-60
[6] = test system: PC3 (p53−) (Prostate Adenocarcinoma); test: Cell viability analysis, prostate cancer PC3; assay type: cell-based, human; conditions: Homo sapiens
[7] = test system: A375 (Amelanotic Melanoma); test: Cell viability analysis, skin cancer A375; assay type: cell-based, human; conditions: Homo sapiens
[8] = test system: AGS (Gastric Adenocarcinoma); test: Cell viability analysis, gastric cancer AGS; assay type: cell-based, human; conditions: Homo sapiens
[9] = test system: A549 (Lung Adenocarcinoma); test: Cell viability analysis, lung cancer A549; assay type: cell-based, human; conditions: Homo sapiens
[10] = test system: MKN-45 (Gastric Adenocarcinoma); test: Cell viability analysis, gastric cancer MKN-45; assay type: cell-based, human; conditions: Homo sapiens
[11] = test system: TSGH-8301 (Urinary Bladder Carcinoma); test: Cell viability analysis, bladder cancer TSGH-8301; assay type: cell-based, human; conditions: Homo sapiens
[12] = test system: LoVo (Colorectal Adenocarcinoma); test: Cell viability analysis, colon cancer LoVo; assay type: cell-based, human; conditions: Homo sapiens, LoVo
[13] = test system: HepG2 (Hepatocellular Carcinoma); test: Cell viability analysis, hepatic cancer HepG2; assay type: cell-based, human; conditions: Homo sapiens
[14] = test system: SAS (Tongue squamous cell carcinoma); test: Cell viability analysis, tongue cancer SAS; assay type: cell-based, human; conditions: Homo sapiens, 72 h, read-out: The results of antibiotic drug inhibiting cancer cell lines (cell viability analysis), SAS
[15] = test system: 786-O (Renal adenocarcinoma); test: Cell viability analysis, renal cancer 786-O; assay type: cell-based, human; conditions: Homo sapiens, 786-0, 72 h, read-out: The results of antibiotic drug inhibiting cancer cell lines (cell viability analysis), 786-O
U-2OS = test: Cell viability analysis, osteosarcoma U-2OS; assay type: cell-based, human; conditions: Homo sapiens, U2OS, 72 h, read-out: The results of antibiotic drug inhibiting cancer cell lines (cell viability analysis), U2OS
[16] = test system: MDA-MB-231 (Mammary Gland, Adenocarcinoma); test: Cell viability analysis, breast cancer MDA-MB-231; assay type: cell-based, human; conditions: Homo sapiens, MDA-MB-231, 72 h, read-out: The results of antibiotic drug inhibiting cancer cell lines (cell viability analysis), MDA-MB231
TOV-21G = test: Cell viability analysis, ovarian cancer TOV-21G; assay type: cell-based, human; conditions: Homo sapiens, TOV21G, 72 h, read-out: The results of antibiotic drug inhibiting cancer cell lines (cell viability analysis), TOV-21G
BxPC-3 = test: Cell viability analysis, pancreatic cancer BxPC-3; assay type: cell-based, human; conditions: Homo sapiens, BXPC-3, 72 h, read-out: The results of antibiotic drug inhibiting cancer cell lines (cell viability analysis), BxPC-3
NIH: OVCAR-3 = test: Cell viability analysis, ovarian cancer NIH: OVCAR-3; assay type: cell-based, human; conditions: Homo sapiens, OVCAR-3, 72 h, read-out: The results of antibiotic drug inhibiting cancer cell lines (cell viability analysis), NIH-OVCAR-3
[17] = test system: HCT116 (p53+) (Colorectal Carcinoma)
cancer cell lines = test: Cell viability analysis (WST-1) on cancer cell lines; assay type: cell-based, human; conditions: drug 10 μM, 72 hours, WST-1; Table 3
[18] = test system: BCC (basal cell carcinoma); test: Cell viability analysis, skin cancer BCC; assay type: cell-based, human; conditions: Homo sapiens, 72 h, read-out: The results of antibiotic drug inhibiting cancer cell lines (cell viability analysis), BCC
T24 = test: Cell viability analysis, bladder cancer T24; assay type: cell-based, human; conditions: Homo sapiens, T-24, 72 h, read-out: The results of antibiotic drug inhibiting cancer cell lines (cell viability analysis), T24
[19] = test system: Hep3B (hepatocellular carcinoma); test: Cell viability analysis, hepatic cancer Hep3B; assay type: cell-based, human; conditions: Homo sapiens, Hep3B, 72 h, read-out: The results of antibiotic drug inhibiting cancer cell lines (cell viability analysis), Hep3B
[20] = test system: C-33A (Cervical carcinoma); test: Cell viability analysis, cervical cancer C-33A; assay type: cell-based, human; conditions: Homo sapiens, C-33-A, 72 h, read-out: The results of antibiotic drug inhibiting cancer cell lines (cell viability analysis), C-33A
AsPC-1 = test: Cell viability analysis, pancreatic cancer AsPC-1; assay type: cell-based, human; conditions: Homo sapiens, ASPC1, 72 h, read-out: The results of antibiotic drug inhibiting cancer cell lines (cell viability analysis), AsPC-1
[21] = NCI-H1650, drug 10 μM, 72 hours, WST-1, OD450 nm, read-out: cell viability (survival rate), H1650
[22] = MCF7, drug 10 μM, 72 hours, WST-1, OD450 nm, read-out: cell viability (survival rate), MCF7
[23] = drug 10 μM, 72 hours, WST-1, OD450 nm, read-out: cell viability (survival rate), HeLa
[24] = drug 10 μM, 72 hours, WST-1, OD450 nm, read-out: cell viability (survival rate), PC3
[25] = A-375, drug 10 μM, 72 hours, WST-1, OD450 nm, read-out: cell viability (survival rate), A375
[26] = drug 10 μM, 72 hours, WST-1, OD450 nm, read-out: cell viability (survival rate), AGS
[27] = A549, drug 10 μM, 72 hours, WST-1, OD450 nm, read-out: cell viability (survival rate), A549
[28] = MKN-45, drug 10 μM, 72 hours, WST-1, OD450 nm, read-out: cell viability (survival rate), MKN-45
[29] = drug 10 μM, 72 hours, WST-1, OD450 nm, read-out: cell viability (survival rate), TSGH
[30] = drug 10 μM, 72 hours, WST-1, OD450 nm, read-out: cell viability (survival rate), LoVo

c1ccc2c(c1)sc1ccccc12 [Dibenzothiophene]
viability at 10 µM [1, 21]: 76.1%
viability at 10 µM [2]: 52.7%
viability at 10 µM [3, 22]: 71.4%
viability at 10 µM [4, 23]: 94.6%
viability at 10 µM ([5]; HL-60): 110%
viability at 10 µM [6, 24]: 80.2%
viability at 10 µM [7, 25]: 70.6%
viability at 10 µM [8, 26]: 59.2%
viability at 10 µM [9, 27]: 62.3%
viability at 10 µM [10, 28]: 92.1%
viability at 10 µM [11, 29]: 88.2%
viability at 10 µM [12, 30]: 79.7%

CCCCCCCCCCCCCCCCO [1-Hexadecanol]
viability at 10 µM ([1]; NCI-H1650, 72 h, drug 10 μM, 72 hours, WST-1, OD450 nm, read-out: cell viability (survival rate), H1650): 84.3%
viability at 10 µM [2]: 69.8%
viability at 10 µM ([4]; 72 h, drug 10 μM, 72 hours, WST-1, OD450 nm, read-out: cell viability (survival rate), HeLa): 91.3%
viability at 10 µM ([5]; HL-60, 72 h): 92.2%
viability at 10 µM ([6]; 72 h, drug 10 μM, 72 hours, WST-1, OD450 nm, read-out: cell viability (survival rate), PC3): 91.9%
viability at 10 µM ([7]; A-375, 72 h, drug 10 μM, 72 hours, WST-1, OD450 nm, read-out: cell viability (survival rate), A375): 113%
viability at 10 µM ([8]; 72 h, drug 10 μM, 72 hours, WST-1, OD450 nm, read-out: cell viability (survival rate), AGS): 89.4%
viability at 10 µM ([9]; A549, 72 h, drug 10 μM, 72 hours, WST-1, OD450 nm, read-out: cell viability (survival rate), A549): 84%
viability at 10 µM ([10]; MKN-45, 72 h, drug 10 μM, 72 hours, WST-1, OD450 nm, read-out: cell viability (survival rate), MKN-45): 85.5%
viability at 10 µM ([13]; HepG2, 72 h, drug 10 μM, 72 hours, WST-1, OD450 nm, read-out: cell viability (survival rate), HepG2): 96%
viability at 10 µM ([12]; 72 h, read-out: cell viability (survival rate), LoVo, drug 10 μM, 72 hours, WST-1, OD450 nm): 98.8%

CCC[S+]([O-])c1ccc2[nH]c(NC(=O)OC)nc2c1 (stereo not drawn) [Albendazole Oxide (Ricobendazole), Albendazole Oxide]
viability at 10 µM [14]: 92.4%
viability at 10 µM ([1]; NCI-H1650, 72 h, H1650, repeated experiment, read-out: The results of antibiotic drug inhibiting cancer cell lines (cell viability analysis), H1650): 64.6%
viability at 10 µM [1, 21]: 59.5%
viability at 10 µM [15]: 86.1%
viability at 10 µM (U-2OS): 84.8%
viability at 10 µM ([3]; MCF7, 72 h, MCF-7, repeated experiment, read-out: The results of antibiotic drug inhibiting cancer cell lines (cell viability analysis), MCF-7): 68.3%
viability at 10 µM [3, 22]: 62.3%
viability at 10 µM ([4]; 72 h, repeated experiment, read-out: The results of antibiotic drug inhibiting cancer cell lines (cell viability analysis), HeLa): 49.4%
viability at 10 µM [4, 23]: 56%
viability at 10 µM ([5]; HL-60): 103%
viability at 10 µM ([6]; 72 h, PC-3, repeated experiment, read-out: The results of antibiotic drug inhibiting cancer cell lines (cell viability analysis), PC-3): 78.7%
viability at 10 µM [6, 24]: 60.5%
viability at 10 µM [16]: 81.1%
viability at 10 µM ([7]; A-375, 72 h, A375, repeated experiment, read-out: The results of antibiotic drug inhibiting cancer cell lines (cell viability analysis), A375): 66.5%
viability at 10 µM [7, 25]: 92.9%
viability at 10 µM ([8]; 72 h, AGS, repeated experiment, read-out: The results of antibiotic drug inhibiting cancer cell lines (cell viability analysis), AGS): 80%
viability at 10 µM [8, 26]: 34%
viability at 10 µM ([9]; 72 h, A549, repeated experiment, read-out: The results of antibiotic drug inhibiting cancer cell lines (cell viability analysis), A549): 95.5%
viability at 10 µM [9, 27]: 155%
viability at 10 µM (TOV-21G): 76.3%
viability at 10 µM (BxPC-3): 50.2%
viability at 10 µM ([10]; 72 h, MKN-45, repeated experiment, read-out: The results of antibiotic drug inhibiting cancer cell lines (cell viability analysis), MKN-45): 74.3%
viability at 10 µM [10, 28]: 60.8%
viability at 10 µM (NIH: OVCAR-3): 72.1%
viability [17]: 91.3%
viability at 10 µM ([13]; 72 h, HepG2, repeated experiment, read-out: The results of antibiotic drug inhibiting cancer cell lines (cell viability analysis), HepG2): 92.9%
viability at 10 µM ([13]; HepG2, drug 10 μM, 72 hours, WST-1, OD450 nm, read-out: cell viability (survival rate), HepG2): 104%
inhibition effect on different cancer cell lines (cancer cell lines): significant inhibition effect
viability at 10 µM [18]: 57.1%
viability at 10 µM (T24): 89.8%
viability at 10 µM [19]: 97.9%
viability at 10 µM ([11]; 72 h, TSGH-8301, repeated experiment, read-out: The results of antibiotic drug inhibiting cancer cell lines (cell viability analysis), TSGH-8301): 63.3%
viability at 10 µM [11, 29]: 77.7%
viability at 10 µM [20]: 102%
viability at 10 µM ([12]; 72 h, repeated experiment, read-out: The results of antibiotic drug inhibiting cancer cell lines (cell viability analysis), LoVo): 88.2%
viability at 10 µM [12, 30]: 68.9%
viability at 10 µM (AsPC-1): 67.6%
